# Source: US12409189B2, “STAUFEN1 agents and associated methods” (University of Utah Research Foundation, priority 2016, dated 2025)
# Entries after “also recorded” stand apart in the source; their conditions may differ.
# What was measured:
# Assay type in all cases: cell-based, human
# Staufen1 [1] = experiment: Western blot of Staufen1 in SH-SY5Y and ATXN2-Q22/58 knock-in cells; settings: for STAU1 levels, expression relative to actin: SH-SY5Y-ATXN2 [Q22/Q22] cells, ASO at the indicated dose, western blotting
# Procedure: (§1) SH-SY5Y cells were cultured in standard DMEM with 10% FBS and 1X penicillin/streptomycin in 5% CO2. Transfection of STAU1 siRNA or STAU1 ASO was accomplished using Lipofectamine transfection reagent using standard conditions. Cells were harvested 3-5 days post transfection.
# (§2) Protein extracts were prepared by suspending cell pellets in SDS-PAGE sample buffer (Laemmli sample buffer) followed by boiling for 5 min. Equal amount of the extracts were subjected to Western blot analysis to determine the steady-state levels of proteins using the indicated antibodies. Protein extracts were resolved by SDS-PAGE and transferred to Hybond P membranes (Amersham Bioscience Inc., USA). After blocking with 5% skim milk in 0.1% Tween 20/PBS, the membranes were incubated with primary antibodies in 5% skim milk in 0.1% Tween 20/PBS for 2 hrs at room temperature or overnight at 4° C. After several washes with 0.1% Tween 20/PBS, the membranes were incubated with the corresponding secondary antibodies conjugated with HRP in 5% skim milk in 0.1% Tween 20/PBS for 2 hrs at room temperature. Following three additional washes with 0.1% Tween 20/PBS, signals were detected by using the Immobilon Western Chemiluminescent HRP Substrate (Millipore Inc., USA; cat #WBKLSO100) according to the manufacturer's protocol. The antibodies used included ATXN2 mAb [(1:3000), BD Biosciences Inc.; cat #611378], rabbit anti-Staufen antibody (Novus biologicals Inc., NBP1-33202), SQSTM1/p62 antibody (Cell signaling, #5114), LC3B Antibody (Novus biologicals Inc., NB100-2220), mTOR antibody (Cell signaling, #2972), Phospho-mTOR (Ser2448) antibody (Cell signaling #2971), β-Actin mAb conjugated with HRP [(1:10,000), Sigma Inc.; cat #A3858]. Secondary antibodies were horse anti-mouse IgG-HRP antibody (Vector laboratories, PI-2000), and goat anti-rabbit IgG-HRP antibody (Vector laboratories, PI-1000).
# (§3) For over-expression of recombinant proteins, SH-SY5Y cells were seeded on 100 mm or 6 well dishes and incubated overnight. The cells were then transfected with plasmid DNAs and harvested 48 hrs post-transfection and processed as two aliquots for protein and RNA analyses. For siRNA experiments, cells were transfected with siRNAs using lipofectamine 2000, and lymphoblastoid B cells (1×10^6) were electroporated with siRNAs using the Neon transfection system (Invitrogen Inc., USA) according to the manufacturer's protocol and seeded on 6 well plates.
# (§4) Preparation of protein lysates and western blot analyses. […] Signals were detected by using the Immobilon Western Chemiluminescent HRP Substrate (Millipore Inc., USA; cat #WBKLSO100) according to the manufacturer's protocol. The intensity of proteins was determined by using the ImageJ software analyses system and the relative protein abundances were expressed as ratios to β-actin.
# [2] = test system: autophagic pathway proteins (mTOR, P-mTOR, p62, LC3-II); experiment: Western blot of autophagic pathway proteins in SH-SY5Y and ATXN2-Q22/58 knock-in cells
# Procedure: as §1
# as §2, with “The antibodies used included ATXN2 mAb [(1:3000), BD Biosciences Inc.; cat #611378], rabbit anti-Staufen antibody (Novus biologicals Inc., NBP1-33202), SQSTM1/p62 antibody (Cell signaling, #5114), LC3B Antibody (Novus biologicals Inc., NB100-2220), mTOR antibody (Cell signaling, #2972), Phospho-mTOR (Ser2448) antibody (Cell signaling #2971), β-Actin mAb conjugated with HRP [(1:10,000), Sigma Inc.; cat #A3858].” left out
# as §3
# Preparation of protein lysates and western blot analyses. Cellular extracts were prepared by a single-step lysis method. […] Equal amounts of the extracts were used for western blot analyses. […] Only supernatants were used for western blotting. Protein extracts were resolved by SDS-PAGE and transferred to Hybond P membranes (Amersham Bioscience Inc., USA). After blocking with 5% skim milk in 0.1% Tween 20/PBS, the membranes were processed for immunostaining using corresponding primary and secondary antibodies. Signals were detected by using the Immobilon Western Chemiluminescent HRP Substrate (Millipore Inc., USA; cat #WBKLSO100) according to the manufacturer's protocol. The intensity of proteins was determined by using the ImageJ software analyses system and the relative protein abundances were expressed as ratios to β-actin.
# p21 Waf1/Cip1 = experiment: Cycloheximide (CHX)-chase assay, p21 Waf1/Cip1 control, western blot; settings: 4 hr after CHX treatment (25 μg/ml), both normal and SCA2 fibroblasts
# Procedure: (§5) To identify the underlying mechanism of ATXN2 polyQ expansion-mediated Staufen1 abundance, Staufen1 transcript levels were examined in normal and SCA2 fibroblasts. […] To test this, comparative protein stability for Staufen1 was measured by cycloheximide (CHX)-chase assay in normal and SCA2 fibroblasts. Relative Staufen1 levels were analyzed from harvested normal and SCA2 fibroblast extracts. (FIGS. 4B and 4C).
# (§6) Preparation of protein lysates and western blot analyses. Cellular extracts were prepared by a single-step lysis method. The harvested cells were suspended in SDS-PAGE sample buffer [Laemmli sample buffer (Bio-Rad Inc.; cat #161-0737)] and then boiled for 5 min. Equal amounts of the extracts were used for western blot analyses. Cerebellar protein extracts were prepared by homogenization of mouse cerebella in extraction buffer [25 mM Tris-HCl pH 7.6, 300 mM NaCl, 0.5% Nonidet P-40, 2 mM EDTA, 2 mM MgCl2, 0.5 M urea and protease inhibitors (Sigma Inc.; cat #P-8340)] followed by centrifugation at 4° C. for 20 min at 14,000 RPM. […] Signals were detected by using the Immobilon Western Chemiluminescent HRP Substrate (Millipore Inc., USA; cat #WBKLSO100) according to the manufacturer's protocol. The intensity of proteins was determined by using the ImageJ software analyses system and the relative protein abundances were expressed as ratios to β-actin.
# Staufen1 [3] = experiment: Cycloheximide (CHX)-chase assay, Staufen1 protein stability, western blot
# Procedure: as §5, §6
# STAU1 = experiment: Sodium arsenite-induced stress, STAU1 immunoblotting in fibroblasts
# From the text: Cell culture and Transfections. Four normal skin fibroblasts (ATXN2 with CAG22) and five SCA2 patient-derived skin FBs (ATXN2 with CAG repeats; 35, 35, 35, 42, and 45), were maintained in DMEM medium containing 10% fetal bovine serum. Two normal (ATXN2 with CAG22) and three SCA2 patient-derived (ATXN2 with expanded CAG repeats; 40, 46 and 52) Epstein-Barr virus (EBV)-immortalized LBCs were maintained in RPMI medium containing 15% fetal bovine serum. All subjects gave written consent and all procedures were approved by the Institutional Review Board at the University of Utah. The following primary human fibroblasts were obtained from the Coriell Cell Repositories (Camden, NJ, USA): ALS patient (TDP-43G298S mutation)(ND32947), Huntington disease (HD) patient (ND33392) and SCA3 (Machado-Joseph disease, MJD) patient (GM06153). TDP-43G298S, HD, SCA3, and SH-SY5Y cells were maintained in DMEM medium containing 10% fetal bovine serum.
# as §4, with “analyses. Cellular extracts were prepared by a single-step lysis method.” for “analyses.”
# [4] = SH-SY5Y and ATXN2-Q22/58 knock-in cells, Baf dose-wise, 6 h, vs untreated
compound,measurement,setting,value
"5′-CTGGAAAGATAGTCCAGTTG-3′ (listed as DNA, chemistry not given here; listed as Homo sapiens) [STAU1 ASO-B, antisense oligonucleotide targeting Staufen1]","STAU1 levels, expression relative to actin",Staufen1 [1],reduced STAU1 levels
"5′-TCTCATGTTGTAGTTATAGG-3′ (listed as DNA, chemistry not given here; listed as Homo sapiens) [STAU1 ASO-A, antisense oligonucleotide targeting Staufen1]","STAU1 levels, expression relative to actin",Staufen1 [1],reduced STAU1 levels
"CO/C1=C\C(C)=C\[C@@H](C)[C@@H](O)[C@@H](C)C/C(C)=C/C=C/[C@H](OC)[C@@H]([C@@H](C)[C@@H](O)[C@H](C)[C@@]2(O)C[C@@H](O)[C@H](C)[C@@H](C(C)C)O2)OC1=O [Bafilomycin Al, bafilomycin Al, reference compound]",Staufen1 levels / clearance,Staufen1 [1]; [4],dose-wise increased levels; also recorded: lowers Staufen1 clearance
same,LC3-II level,"[2]; ATXN2-Q22/58 KI cells, Baf treatment",slight elevation of LC3-II
same,processed LC3-II and p62 levels,[2]; [4],dose-wise increased levels
"C[C@@H]1C[C@@H]([C@H](O)CC2CC(=O)NC(=O)C2)C(=O)[C@@H](C)C1 [CHX, cycloheximide]",reduction of p21 Waf1/Cip1 levels,p21 Waf1/Cip1,~90%
same,Staufen1 protein expression levels,"Staufen1 [3]; SCA2 fibroblasts, CHX treatment",relatively little decrease
same,Staufen1 levels,"Staufen1 [3]; normal fibroblasts, 4 hr after CHX treatment",reduced
O=[As]O [sodium arsenite],STAU1 level in response to arsenite,"STAU1; HD and SCA3 patient fibroblasts, 1.0 mM, 0, 3 and 6 hr",early and exaggerated responses; also recorded: exaggerated increases in STAU1 levels
same,STAU1 level in response to arsenite,"STAU1; normal fibroblasts (implied), only visible after 6 hr treatment",modest STAU1 increase
